Assay results taken from patent US11627753B2, “Solubilized steviol glycoside compositions” (JAMES AND CAROL MAY FAMILY, LLLP, priority 2014, dated 2023).

Test: Precipitation from aqueous solution in the absence of the emulsifier
Type: physicochemical
Conditions: without natural emulsifier
From the text: In accordance with various exemplary embodiments of the present technology, the sweetener composition may comprise a natural emulsifier. The natural emulsifier may function to disperse the stevia glycosides through an aqueous solution such as water. The dissolved concentration of the stevia glycosides in the aqueous solution may be higher in the presence of the natural emulsifier than in the absence of the natural emulsifier. For example, rebaudioside A present in amounts of 11% by weight or greater may precipitate from an aqueous solution. In various embodiments of the present technology, the natural emulsifier may allow rebaudioside A to be present in aqueous solution in amounts of up to about 20% by weight without precipitation. In some embodiments, adding the natural emulsifier to an aqueous (ie., water-based) solution of stevia glycosides may stabilize the solubility of the sweetener composition including reducing or eliminating the precipitation of solids from the solution by binding any of the components to prevent separation of the finished sweetener composition.
In various embodiments, the solubility of the aqueous sweetener composition may remain stable for more than five days at room temperature. In some embodiments, the solubility of the aqueous sweetener composition may remain a stable for at least six months at room temperature. […]

amount at which it may precipitate from an aqueous solution: ≥ 11 % by weight
SMILES: C=C1C[C@@]23CC[C@H]4[C@@](C)(CCC[C@@]4(C)C(=O)O[C@@H]4O[C@H](CO)[C@@H](O)[C@H](O)[C@H]4O)[C@@H]2CC[C@]1(O[C@@H]1O[C@H](CO)[C@@H](O)[C@H](O[C@@H]2O[C@H](CO)[C@@H](O)[C@H](O)[C@H]2O)[C@H]1O[C@@H]1O[C@H](CO)[C@@H](O)[C@H](O)[C@H]1O)C3 [rebaudioside A]
